“Also recorded” adds a separate entry of the source.
Assays:
[1] = tested on: talazoparib-resistant Brca1-def tumors; test: Talazoparib-resistant Brca1-def orthotopic allograft in B6/129F1 mice (tumor growth, weight, immunostaining, body weight); type: in vivo, mouse; conditions: for body weight: from treatment initiation until endpoint, talazoparib 0.3 mg/kg/day, axitinib 30 mg/kg/day
Description: (§2) Treatment with Tal (0.3 mg/kg body weight per day, five days/week, oral gavage) began two weeks following tumor-cell injection. Tumors were collected after tumor relapse in the Tal-treated group and were then dissociated and selected to generate Tal-resistant Brca1-def breast cancer cell lines. […] Tal-resistant, Brca1-def tumors were then isolated at 13 weeks following tumor-cell injection. n=32 for Veh-treated mice; n=24 for Tal-treated mice. Data are presented as mean values±SEM. P values were determined by a two-tailed, unpaired, Mann-Whitney test. * at 2 weeks indicates P=0.0169; *** at 3 weeks indicates P=0.0007; **** at 5 and 7 weeks indicates P<0.0001. […] P values were determined by a two-tailed, unpaired, Mann-Whitney test. * at 3 weeks indicates P=0.0174; ns: not significant. […] Treatment began one-week post tumor-cell injection. […] Data are presented as mean values±SEM. P values were determined by a two-tailed, unpaired, Mann-Whitney test. ** at 3 and 4 weeks indicates P=0.0043; ** at 5 weeks indicates P=0.0095.

[2] = tested on: talazoparib-resistant Bard1-def tumors; test: Talazoparib-resistant Bard1-def orthotopic allograft in B6/129F1 mice (tumor growth, weight, immunostaining, body weight); type: in vivo, mouse; conditions: for body weight: from treatment initiation until endpoint, talazoparib 0.3 mg/kg/day, axitinib 30 mg/kg/day
Description: as §2

[3] = tested on: relapsed high-grade ovarian cancer; conditions: relapsed high-grade ovarian cancer patients, p=0.007; cited from earlier work
[4] = tested on: Brca1-def Tal-sensitive tumors; test: In-vivo PARPi-response-and-recurrence model, Brca1-def orthotopic allograft (talazoparib-sensitive)
Description: (§3) Treatment with Tal (0.3 mg/kg body weight per day, five days/week, oral gavage) began two weeks following tumor-cell injection. Tumors were collected after tumor relapse in the Tal-treated group and were then dissociated and selected to generate Tal-resistant Brca1-def breast cancer cell lines. […] Tal-resistant, Brca1-def tumors were then isolated at 13 weeks following tumor-cell injection. n=32 for Veh-treated mice; n=24 for Tal-treated mice. Data are presented as mean values±SEM. […] FIG. 1C, Mice were injected with the Tal-resistant (“Tal-Res”), Brca1-def breast cancer cell line isolated in B and then checked for sensitivity to Tal. n=21 for Veh-treated mice; n=31 for Tal-treated mice. […] Treatment began one-week post tumor-cell injection. […] Data are presented as mean values±SEM. […] FIG. 1F, Mice were injected with the Tal-Res, Bard1-def breast cancer cell line isolated in E and then checked for sensitivity to Tal. n=12 for Veh-treated mice; n=14 for Tal-treated mice.
(§4) To study mechanisms of PARPi resistance in vivo, mammary glands from syngeneic B6/129F1 mice were orthotopically injected with luciferase-labeled Brca1- or Bard1-deficient mammary cancer cell lines (hereafter referred to as Brca1-def and Bard1-def) derived from Brca1- or Bard1-conditionally deleted mice^23 (FIGS. 1A and 1D). As tumors started to grow, tumor-bearing mice were randomized and treated five days/week with either vehicle or the PARPi talazoparib (referred to as “Tal” in the figures) at a dose of 0.3 mg/kg body weight/day starting at either 14 days (Brca1-def) or 7 days (Bard1-def) post tumor-cell injection. Tumor size was monitored weekly (FIGS. 1B and 1E). […] While tumor growth in Brca1-def models was monitored for 13 weeks post tumor-cell injection, Bard1-def models could only be monitored for 5 weeks post tumor-cell injection due to the onset of cachexia, as described in the previous studies^36. PARPi-resistant tumors were then collected, and cancer cells were purified and re-injected into the mammary glands of new B6/129F1 recipient mice. Mice were treated following the same dosing schedule as described above.

[5] = tested on: Bard1-def Tal-sensitive tumors; test: In-vivo PARPi-response-and-recurrence model, Bard1-def orthotopic allograft (talazoparib-sensitive)
Description: as §3, §4

[6] = tested on: talazoparib-resistant Bard1-def tumor cells (pAKT Ser473, pSTAT3); test: Immunoblot after recombinant PGF treatment, talazoparib-resistant Bard1-def tumor cells (Con vs Flt1i); type: cell-based; conditions: 50 ng/ml mouse recombinant PGF, serum-free medium, 10 min
Description: (§1) FIG. 18A-FIG. 18H—FLT1 activation in Brca1- and Bard1-def breast tumor cells induces pro-survival AKT signaling. (FIG. 18A, FIG. 18B) Immunoblot analysis was performed on lysates from Flt1-expressing (Con) and -deficient (Flt1i), talazoparib-resistant (“Res”) Brca1- and Bard1-def tumor cells, that were treated with 50 ng/ml of mouse PGF protein using antibodies against phosphorylated-AKT at serine 473 (pAKT Ser473), AKT, and β-actin. […] Scale bars, 20 μm. (FIG. 18D) Immunostained sections from (C) were quantified using automated QuPath software to identify positively stained cells. n=5 mice for Sen and Res groups for both models. Data were presented as mean values±SEM. […] (FIG. 18E) Representative images of IHC for pAKT Ser473 staining on talazoparib-treated “Tal”, Lenti-Con- and Flt1i-expressing Res tumor sections from both models (see FIG. 3C). Scale bars, 20 μm. […] (FIG. 18G) Representative images of IHC for pAKT Ser473 on Tal-treated and Tal+Axi-treated tumor sections from both models (see FIG. 4A/D). Scale bars, 20 μm. (FIG. 18H) Immunostained sections from (G) were quantified using automated QuPath software to identify positively stained cells. For the Brca1-def model, n=4 tumors from both Tal-treated and Tal+Axi-treated mice. For the Bard1-def model, n=5 tumors from both Tal-treated and Tal+Axi-treated mice. Data were presented as mean values±SEM. […]

[7] = tested on: talazoparib-resistant Brca1-def tumor cells (pAKT Ser473, pSTAT3); test: Immunoblot after recombinant PGF treatment, talazoparib-resistant Brca1-def tumor cells (Con vs Flt1i); type: cell-based; conditions: 50 ng/ml mouse recombinant PGF, serum-free medium, 15 s
Description: as §1

[8] = talazoparib alone 0.3 mg/kg/day, five days/week, vs vehicle

With `CNC(=O)c1ccccc1Sc1ccc2c(/C=C/c3ccccn3)n[nH]c2c1` [axitinib] the body weight [1] was “remained stable” and the body weight [2] was “remained stable”.

In the case of `O=C(c1cc(Cc2n[nH]c(=O)c3ccccc23)ccc1F)N1CCN(C(=O)C2CC2)CC1` [olaparib], the “median progression-free survival (PFS)” value [3] is given as 8.2 months.

In the case of `Cn1ncnc1[C@H]1c2n[nH]c(=O)c3cc(F)cc(c23)N[C@@H]1c1ccc(F)cc1` [talazoparib], the “relapse, time following the start of Tal treatment” value ([4]; Tal 0.3 mg/kg per day, five days/week, oral gavage, begun two weeks after tumor-cell injection) is reported as “about seven”, the “development of drug resistance (recurrence of tumors)” value ([4]; continued talazoparib treatment, monitored 13 weeks post tumor-cell injection) is reported as “eventually developed drug resistance; also recorded: eventually became refractory to the treatment” and the tumor growth ([4]; talazoparib 0.3 mg/kg body weight/day, five days/week, oral gavage, from 14 days post tumor-cell injection, vs vehicle) is reported as “suppressed tumor growth for several weeks”. For the same molecule, the body weight [1] was “remained stable”, the “tumor growth and weight at endpoint, Flt1-repressed (Flt1i) resistant tumor cells” value ([1]; talazoparib 0.3 mg/kg body weight/day, five days/week, Flt1i+Tal vs Lenti-Con+Tal, endpoint 4 weeks) was “re-sensitizes PARPi-resistant tumors to talazoparib” and the “tumor regression / response of PARPi-resistant tumor lines to PARPi treatment” value [1, 8] was “no tumor regression; also recorded: failed to respond in-vivo”. The body weight [2] was “remained stable”, the “tumor growth and weight at endpoint, Flt1-repressed (Flt1i) resistant tumor cells” value ([2]; talazoparib 0.3 mg/kg body weight/day, five days/week, Flt1i+Tal vs Lenti-Con+Tal, endpoint 3 weeks) was “re-sensitizes PARPi-resistant tumors to talazoparib” and the “tumor regression / response of PARPi-resistant tumor lines to PARPi treatment” value [2, 8] was “no tumor regression; also recorded: failed to respond in-vivo”. The “relapse tumors arose, time post tumor-cell injection” value ([5]; Tal treatment begun one week post tumor-cell injection) was “about three”, the “development of drug resistance (recurrence of tumors)” value ([5]; continued talazoparib treatment, monitored 5 weeks post tumor-cell injection) was “eventually developed drug resistance; also recorded: soon progressed” and the tumor growth ([5]; talazoparib 0.3 mg/kg body weight/day, five days/week, oral gavage, from 7 days post tumor-cell injection, vs vehicle) was “responded initially”.

B1: PGF: mouse recombinant PGF (R&D Systems, #465-PL-010), placental growth factor (protein)
chain: VHSQGALSAGNNSTEVEVVPFNEVWGRSYCRPMEKLVYILDEYPDEVSHIFSPSCVLLSRCSGCCGDEGLHCVPIKTANITMQILKIPPNRDPHFYVEMTFSQDVLCECRPILETTKAERRKTKGKRKRSRNSQTEEPHP
With B1 the “activation of AKT (pAKT Ser473 immunoblot)” value [6] was “FLT1-dependent activation of AKT”, the “activation of STAT3 (pSTAT3 immunoblot)” value [6] was “not STAT3” and the “activation of AKT (pAKT Ser473 immunoblot)” value [7] was “FLT1-dependent activation of AKT”. The “activation of STAT3 (pSTAT3 immunoblot)” value [7] was “not STAT3”.

Reference: patent US20260191848A1, “METHODS OF REVERSING PARP-RESISTANCE IN CANCER” (THE TRUSTEES OF COLUMBIA UNIVERSITY IN THE CITY OF NEW YORK, priority 2023, published 2026)
